Data taken from patent US7754919B2, “Non-nucleoside reverse transcriptase inhibitors” (Roche Palo Alto LLC, priority 2005, dated 2010).

Experiments:
HIV-1 RT = HIV-1 RT (Human immunodeficiency virus type 1 group M subtype B, UniProt P03366); assay: Heteropolymer HIV reverse Transcriptase Assay: Inhibitor IC50 Determination; format: biochemical; details: RNA-dependent DNA polymerase activity, biotinylated DNA primer/RNA template, SPA beads, 30°C 30 min
Procedure: Heteropolymer HIV reverse Transcriptase Assay: Inhibitor IC50 Determination
RNA-dependent DNA polymerase activity was measured using a biotinylated primer oligonucleotide and tritiated dNTP substrate. Newly synthesized DNA was quantified by capturing the biotinylated primer molecules on streptavidin coated Scintillation Proximity Assay (SPA) beads (Amersham). The sequences of the polymerase assay substrate were: 18nt DNA primer, 5′-Biotin/GTC CCT GTT CGG GCG CCA-3′ (SEQ. ID NO. 2); 47nt RNA template, 5′-GGGUCUCUCUGGUUAGACCACUCUAGCAGUGGCGCCCGAACAGGGAC-3′ (SEQ ID NO. 1). The biotinylated DNA primer was obtained from the Integrated DNA Technologies Inc. and the RNA template was synthesized by Dharmacon. The DNA polymerase assay (final volume 50 μl) contained 32 nM biotinylated DNA primer, 64 nM RNA substrate, dGTP, dCTP, dTTP (each at 5 μM), 103 nM [^3H]-dATP (specific activity=[…]), in 45 mM Tris-HCl, pH 8.0, 45 mM NaCl, 2.7 mM Mg(CH3COO)2, 0.045% Triton X-100 w/v, 0.9 mM EDTA. The reactions contained 5 μl of serial compound dilutions in 100% DMSO for IC50 determination and the final concentrations of DMSO were 10%. Reactions were initiated by the addition of 30 μl of the HIV-1-RT enzyme (final concentrations of 1-3 nM). Protein concentrations were adjusted to provide linear product formation for at least 30 min of incubation. After incubation at 30°C for 30 min, the reaction was quenched by addition of 50 μl of 200 mM EDTA (pH 8.0) and 2 mg/ml SA-PVT SPA beads (Amersham, RPNQ0009, reconstituted in 20 mM Tris-HCl, pH 8.0, 100 mM EDTA and 1% BSA). The beads were left to settle overnight and the SPA signals were counted in a 96-well top counter-NXT (Packard). IC50 values were obtained by sigmoidal regression analysis using GraphPad Prism 3.0 (GraphPad Software, Inc.).

Row | Compound | IC50 (HIV-1 RT) | melting point
1 | CC(C)(CN1CCCC1)NC(=O)c1ccc(NC(=O)Cc2ccc(Br)c(Oc3cc(Cl)cc(C#N)c3)c2F)c(Cl)c1 [Compound I-45, 4-{2-[4-Bromo-3-(3-chloro-5-cyano-phenoxy)-2-fluoro-phenyl]-acetylamino}-3-chloro-N-(1,1-dimethyl-2-pyrrolidin-1-yl-ethyl)-benzamide] | 4.1 nM | 70 °C
2 | Cl.N#Cc1cc(Cl)cc(Oc2c(Br)ccc(CC(=O)Nc3ccc(C(=O)NCCN4CCC(F)(F)CC4)cc3Cl)c2F)c1 [Compound I-40, 4-{2-[4-Bromo-3-(3-chloro-5-cyano-phenoxy)-2-fluoro-phenyl]-acetylamino}-3-chloro-N-[2-(4,4-difluoro-piperidin-1-yl)-ethyl]-benzamide; hydrochloride salt] | 37 nM | 140.2 to 143.3 °C
3 | CN1CCC(NC(=O)c2ccc(NC(=O)Cc3ccc(Br)c(Oc4cc(Cl)cc(C#N)c4)c3F)c(Cl)c2)C1 (centres unmarked) [Compound I-50, 4-{2-[4-Bromo-3-(3-chloro-5-cyano-phenoxy)-2-fluoro-phenyl]-acetylamino}-3-chloro-N-(1-methyl-pyrrolidin-3-yl)-benzamide] | 6.9 nM | 204 °C
4 | N#Cc1cc(Cl)cc(Oc2c(Br)ccc(CC(=O)Nc3ccc(C(=O)NC4CCS(=O)(=O)C4)cc3Cl)c2F)c1 (centres unmarked) [Compound I-55, 4-{2-[4-Bromo-3-(3-chloro-5-cyano-phenoxy)-2-fluoro-phenyl]-acetylamino}-3-chloro-N-(1,1-dioxo-tetrahydro-1λ^6-thiophen-3-yl)-benzamide] | 16.3 nM | 236.6 °C
